From paper PMC7660689, “Catechol-Type Flavonoids from the Branches of Elaeagnus glabra f. oxyphylla Exert Antioxidant Activity and an Inhibitory Effect on Amyloid-β Aggregation” (Molecules, 2020)

Assays:
[1] = ABTS radical scavenging assay; conditions: for ABTS radical scavenging activity: compounds at 100 μM; for Concentration at which ABTS radical scavenging activity reached 100% / IC50: isolated compounds; for IC50: 1.5625-100 µM
Method: ABTS and DPPH radical scavenging assays were performed with reference to the modified method described in previously published reports to examine the antioxidant activities. […] Subsequently, the reactant was diluted 25-fold to adjust its absorbance at 734 nm to 0.7 by using a spectrophotometer (Benchmark Plus, Bio-Rad, Hercules, CA). […] The absorbance was measured at 517 nm. Ascorbic acid was used as a positive control for antioxidative activity.

Aβ1–42 peptides = target: T1, Aβ1–42 peptides (Homo sapiens, UniProt P05067); experiment: Thioflavin T (ThT) Aβ aggregation assay; type: biochemical; conditions: for Inhibition of Aβ aggregation compared with positive control morin: compounds at 100 μM, morin 100 μM; for IC50: isolated compounds, 6.25-100 µM, ThT fluorescence, read-out: Inhibition of Aβ aggregation IC50
T1 construct: purchased AnaSpec
Method: To measure the inhibitory effect on Aβ1–42 aggregation, the SensoLyte® Thioflavin T (ThT) β-Amyloid aggregation kit (AnaSpec, Fremont, CA, USA) was used according to the modified manufacturer’s instructions. This assay is based on the property of ThT dye that increases fluorescence when bound to the aggregates of Aβ1–42 peptides. The detailed protocol is described in a previous report. Morin (100 μM) was used as a positive control for the inhibition of Aβ aggregation. Experiments were performed in triplicate and independently repeated three times. The inhibition rate (%) of Aβ aggregation was calculated according to the following equation:(1) Inhibition of Aβ aggregation %=1−Fluorescence of Aβ−treated sample/Fluorescence of untreated sample×100

[2] = DPPH radical scavenging assay; conditions: for DPPH radical scavenging activity: concentrations from 1.5625 to 100 µM; for IC50: isolated compounds, 1.5625-100 µM
Method: ABTS and DPPH radical scavenging assays were performed with reference to the modified method described in previously published reports to examine the antioxidant activities. In the ABTS assay, 7 mM ABTS aqueous solution and 2.45 mM potassium persulfate were reacted for 12–16 h in the dark at room temperature to prepare the ABTS^•+ solution. Subsequently, the reactant was diluted 25-fold to adjust its absorbance at 734 nm to 0.7 by using a spectrophotometer (Benchmark Plus, Bio-Rad, Hercules, CA). The sample solution (100 μL) and ABTS^•+ solution (100 μL) were mixed and incubated for 5 min at room temperature in the dark.
To determine the DPPH radical scavenging activity, the sample solution (100 μL) and 0.15 mM DPPH solution (100 μL) were mixed and incubated for 3 h at room temperature in the dark. The absorbance was measured at 517 nm. Ascorbic acid was used as a positive control for antioxidative activity. The radical scavenging activity (%) was calculated using the following equation:(2) Radical scavenging activity %=1−Absorbance of sample/Absorbance of control × 100

T1 sequence (P05067 672-713 limits assumed): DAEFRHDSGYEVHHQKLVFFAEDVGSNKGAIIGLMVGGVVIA

| SMILES | ABTS radical scavenging activity [1] [%] | Inhibition of Aβ aggregation compared with positive control morin (Aβ1–42 peptides) | IC50 (Aβ1–42 peptides) [µM] | DPPH radical scavenging activity [2] [%] | IC50 [2] [µM] | Concentration at which ABTS radical scavenging activity reached 100% [1] [µM] | IC50 [1] [µM] | melting point [°C] |
| --- | --- | --- | --- | --- | --- | --- | --- | --- |
| O=C(O)c1ccc(O)cc1 [Compound 1, 4-hydroxybenzoic acid] | < 66 | – | – | – | – | – | – | – |
| O=C(C=Cc1ccc(O)cc1)OCC1OC(Oc2c(-c3ccc(O)c(O)c3)oc3cc(O)cc(O)c3c2=O)C(O)C(O)C1O (stereo not drawn) [Compound 13, helichrysoside] | – | comparably to morin | 44.5 | < 52 | > 100 | 25 | 4.61 | – |
| Oc1cc(O)c2c(c1)O[C@H](c1ccc(O)c(O)c1)[C@@H](O)[C@@H]2c1c(O)cc(O)c2c1O[C@H](c1ccc(O)c(O)c1)[C@@H](O)C2 [Compound 8, procyanidin B3] | – | comparably to morin | 14.6 | < 52 | 54.9 | 12.5 | 3.21 | – |
| C[C@@H]1CC[C@]2(C(=O)O)CC[C@]3(C)C(=CCC4[C@@]5(C)CC[C@H](OC(=O)/C=C/c6ccc(O)c(O)c6)C(C)(C)C5CC[C@]43C)C2[C@H]1C (stereo partly drawn) [Compound 15, ursolic acid-3-O-trans-caffeate] | < 66 | – | – | – | – | – | – | > 300 |
| O=C(O)c1ccccc1O [Compound 2, salicylic acid] | < 66 | – | – | – | – | – | – | – |
| C=C(C)[C@@H]1CC[C@]2(C(=O)O)CC[C@]3(C)C(CCC4[C@@]5(C)CC[C@H](OC(=O)/C=C/c6ccc(O)c(O)c6)C(C)(C)C5CC[C@]43C)C12 (stereo partly drawn) [Compound 14, betulinic acid-3-O-trans-caffeate] | < 66 | – | – | – | – | – | – | 270 |
| Oc1cc(O)c2c(c1)O[C@H](c1ccc(O)c(O)c1)[C@@H](O)[C@@H]2c1c(O)cc(O)c2c1O[C@H](c1ccc(O)c(O)c1)[C@H](O)C2 [Compound 9, procyanidin B4] | – | comparably to morin | 32.6 | < 52 | > 100 | 12.5 | 3.44 | – |
